Laboratory results reported in ChEMBL document CHEMBL5537207, “Discovery and Characterization of Selective, First-in-Class Inhibitors of Citron Kinase” (J Med Chem, 2024).
Each block holds one compound with its values, some of them ahead of it.

Legend:
[1] = target: T1, Citron Rho-interacting kinase (Homo sapiens, UniProt O14578)
[2] = target: T1, Citron Rho-interacting kinase; experiment: Binding affinity to NanoLuc fused-CITK (unknown origin) expressed in HEK293T cells assessed as dissociation constant NanoBRET Target Engagement Intracellular Kinase Assay; assay type: cell-based
[3] = target: T1, Citron Rho-interacting kinase; experiment: Binding affinity to NanoLuc fused-CITK kinase domain (unknown origin) expressed in HEK293T cells assessed as dissociation constant NanoBRET Target Engagement Intracellular Kinase Assay; assay type: cell-based
[4] = Volume of distribution at steady state in Sprague-Dawley rat at 1 mg/kg, iv measured upto 24 hrs; assay type: ADME, organism-based; conditions: in vivo, read-out: Vdss
[5] = system: COLO 205; experiment: Antiproliferative activity against human COLO 205 Panel cells assessed as cell viability incubated for 48 hrs by CellTiter-Glo cell viability assay; assay type: functional
[6] = Apparent permeability across apical to basolateral side in dog MDCK cells incubated for 1 hr by LCMS analysis; assay type: ADME, cell-based, Canis lupus familiaris
[7] = system: 786-0; experiment: Antiproliferative activity against human 786-0 Panel cells assessed as cell viability incubated for 48 hrs by CellTiter-Glo cell viability assay; assay type: functional
[8] = Oral bioavailability in Sprague-Dawley rat at 10 mg/kg measured upto 24 hrs; assay type: ADME, organism-based; conditions: in vivo
[9] = AUC in CD-1 disease model mouse brain at 30 mg/kg, po measured after 24 hrs; assay type: ADME, organism-based; conditions: CD-1, mouse
[10] = AUC in Sprague-Dawley rat at 1 mg/kg, iv measured upto 24 hrs; assay type: ADME, organism-based; conditions: in vivo
[11] = Unbound fraction in human plasma measured after 4.5 hrs by LC-MS/MS analysis; assay type: ADME, cell-free
[12] = system: Panel NCI-60 (60 carcinoma cell lines); experiment: Antiproliferative activity against human Panel NCI-60 (60 carcinoma cell lines) assessed as cell viability incubated for 48 hrs by CellTiter-Glo cell viability assay; assay type: functional
[13] = target: CYP3A4 (Homo sapiens, UniProt P08684); experiment: Inhibition of CYP3A4 (unknown origin) at 10 uM by LC/MS/MS analysis relative to control; assay type: ADME
Sequence of CYP3A4 (P08684 whole entry): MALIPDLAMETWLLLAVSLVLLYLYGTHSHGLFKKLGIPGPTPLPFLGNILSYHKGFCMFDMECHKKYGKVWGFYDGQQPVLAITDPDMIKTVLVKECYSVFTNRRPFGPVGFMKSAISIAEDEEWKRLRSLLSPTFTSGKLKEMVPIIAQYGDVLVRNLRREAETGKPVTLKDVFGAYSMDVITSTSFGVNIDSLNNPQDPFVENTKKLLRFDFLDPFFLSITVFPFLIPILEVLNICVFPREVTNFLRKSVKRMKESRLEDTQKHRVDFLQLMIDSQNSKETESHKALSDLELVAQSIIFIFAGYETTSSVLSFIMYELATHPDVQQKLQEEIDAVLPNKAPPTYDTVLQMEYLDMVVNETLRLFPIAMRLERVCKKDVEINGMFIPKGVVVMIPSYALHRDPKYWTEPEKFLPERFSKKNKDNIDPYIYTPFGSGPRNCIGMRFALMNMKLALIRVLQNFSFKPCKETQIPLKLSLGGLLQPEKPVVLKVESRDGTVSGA

[14] = Half life in Sprague-Dawley rat at 10 mg/kg, po measured upto 24 hrs; assay type: ADME, organism-based; conditions: in vivo
[15] = Cmax in CD-1 disease model mouse brain at 30 mg/kg, po measured after 24 hrs; assay type: ADME, organism-based; conditions: CD-1, mouse
[16] = Unbound fraction in rat plasma measured after 4.5 hrs by LC-MS/MS analysis; assay type: ADME, cell-free
[17] = target: CYP2C9 (Homo sapiens, UniProt P11712); experiment: Inhibition of CYP2C9 (unknown origin) at 10 uM by LC/MS/MS analysis relative to control; assay type: ADME
Sequence of CYP2C9 (P11712 whole entry): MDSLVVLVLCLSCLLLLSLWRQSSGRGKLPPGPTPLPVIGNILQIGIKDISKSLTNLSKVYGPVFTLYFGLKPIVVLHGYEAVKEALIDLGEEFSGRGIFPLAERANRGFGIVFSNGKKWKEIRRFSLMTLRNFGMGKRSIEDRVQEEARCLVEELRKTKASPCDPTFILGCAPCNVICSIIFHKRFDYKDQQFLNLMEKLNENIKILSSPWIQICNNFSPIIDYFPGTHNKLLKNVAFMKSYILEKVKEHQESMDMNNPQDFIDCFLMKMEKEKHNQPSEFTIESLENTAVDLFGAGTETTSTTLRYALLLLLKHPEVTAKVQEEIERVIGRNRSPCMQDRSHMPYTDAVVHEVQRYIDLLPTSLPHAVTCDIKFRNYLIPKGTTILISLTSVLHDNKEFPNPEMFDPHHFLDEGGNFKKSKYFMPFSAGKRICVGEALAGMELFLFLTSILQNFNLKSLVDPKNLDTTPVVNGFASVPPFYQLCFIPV

[18] = system: Hs-578T; experiment: Antiproliferative activity against human Hs-578T cells assessed as cell viability incubated for 48 hrs by CellTiter-Glo cell viability assay; assay type: functional
[19] = AUC in Sprague-Dawley rat at 10 mg/kg, po measured upto 24 hrs; assay type: ADME, organism-based; conditions: in vivo
[20] = Cmax in CD-1 disease model mouse plasma at 30 mg/kg, po measured after 24 hrs; assay type: ADME, organism-based; conditions: CD-1, mouse
[21] = target: CYP2D6 (Homo sapiens, UniProt P10635); experiment: Inhibition of CYP2D6 (unknown origin) at 10 uM by LC/MS/MS analysis relative to control; assay type: ADME
Sequence of CYP2D6 (P10635 whole entry): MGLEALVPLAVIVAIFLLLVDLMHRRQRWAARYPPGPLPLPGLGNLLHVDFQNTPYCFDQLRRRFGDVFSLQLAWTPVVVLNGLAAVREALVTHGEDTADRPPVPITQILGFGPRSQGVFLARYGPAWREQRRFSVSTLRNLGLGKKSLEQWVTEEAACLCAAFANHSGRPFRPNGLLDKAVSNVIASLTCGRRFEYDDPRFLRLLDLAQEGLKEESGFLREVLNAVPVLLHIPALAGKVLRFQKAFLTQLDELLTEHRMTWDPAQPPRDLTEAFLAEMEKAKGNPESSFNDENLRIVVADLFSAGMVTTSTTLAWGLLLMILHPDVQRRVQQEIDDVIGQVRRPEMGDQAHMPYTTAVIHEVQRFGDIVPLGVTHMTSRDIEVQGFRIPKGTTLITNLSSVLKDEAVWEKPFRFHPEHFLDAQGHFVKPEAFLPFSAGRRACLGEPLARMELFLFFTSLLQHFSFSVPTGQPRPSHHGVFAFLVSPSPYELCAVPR

[22] = Plasma clearance in Sprague-Dawley rat at 1 mg/kg, iv measured upto 24 hrs; assay type: ADME, organism-based
[23] = AUC in CD-1 disease model mouse plasma at 30 mg/kg, po measured after 24 hrs; assay type: ADME, organism-based; conditions: CD-1, mouse
[24] = Cmax in Sprague-Dawley rat at 1 mg/kg, iv measured upto 24 hrs; assay type: ADME, organism-based; conditions: in vivo
[25] = Half life in Sprague-Dawley rat at 1 mg/kg, iv measured upto 24 hrs; assay type: ADME, organism-based; conditions: in vivo
[26] = Cmax in Sprague-Dawley rat at 10 mg/kg, po measured upto 24 hrs; assay type: ADME, organism-based; conditions: in vivo
[27] = system: JVM-3; experiment: Antiproliferative activity against human JVM-3 cells assessed as cell viability by standard PRISM assay; assay type: functional, cell-based

T1 sequence (O14578 whole entry, the tested form may be a part): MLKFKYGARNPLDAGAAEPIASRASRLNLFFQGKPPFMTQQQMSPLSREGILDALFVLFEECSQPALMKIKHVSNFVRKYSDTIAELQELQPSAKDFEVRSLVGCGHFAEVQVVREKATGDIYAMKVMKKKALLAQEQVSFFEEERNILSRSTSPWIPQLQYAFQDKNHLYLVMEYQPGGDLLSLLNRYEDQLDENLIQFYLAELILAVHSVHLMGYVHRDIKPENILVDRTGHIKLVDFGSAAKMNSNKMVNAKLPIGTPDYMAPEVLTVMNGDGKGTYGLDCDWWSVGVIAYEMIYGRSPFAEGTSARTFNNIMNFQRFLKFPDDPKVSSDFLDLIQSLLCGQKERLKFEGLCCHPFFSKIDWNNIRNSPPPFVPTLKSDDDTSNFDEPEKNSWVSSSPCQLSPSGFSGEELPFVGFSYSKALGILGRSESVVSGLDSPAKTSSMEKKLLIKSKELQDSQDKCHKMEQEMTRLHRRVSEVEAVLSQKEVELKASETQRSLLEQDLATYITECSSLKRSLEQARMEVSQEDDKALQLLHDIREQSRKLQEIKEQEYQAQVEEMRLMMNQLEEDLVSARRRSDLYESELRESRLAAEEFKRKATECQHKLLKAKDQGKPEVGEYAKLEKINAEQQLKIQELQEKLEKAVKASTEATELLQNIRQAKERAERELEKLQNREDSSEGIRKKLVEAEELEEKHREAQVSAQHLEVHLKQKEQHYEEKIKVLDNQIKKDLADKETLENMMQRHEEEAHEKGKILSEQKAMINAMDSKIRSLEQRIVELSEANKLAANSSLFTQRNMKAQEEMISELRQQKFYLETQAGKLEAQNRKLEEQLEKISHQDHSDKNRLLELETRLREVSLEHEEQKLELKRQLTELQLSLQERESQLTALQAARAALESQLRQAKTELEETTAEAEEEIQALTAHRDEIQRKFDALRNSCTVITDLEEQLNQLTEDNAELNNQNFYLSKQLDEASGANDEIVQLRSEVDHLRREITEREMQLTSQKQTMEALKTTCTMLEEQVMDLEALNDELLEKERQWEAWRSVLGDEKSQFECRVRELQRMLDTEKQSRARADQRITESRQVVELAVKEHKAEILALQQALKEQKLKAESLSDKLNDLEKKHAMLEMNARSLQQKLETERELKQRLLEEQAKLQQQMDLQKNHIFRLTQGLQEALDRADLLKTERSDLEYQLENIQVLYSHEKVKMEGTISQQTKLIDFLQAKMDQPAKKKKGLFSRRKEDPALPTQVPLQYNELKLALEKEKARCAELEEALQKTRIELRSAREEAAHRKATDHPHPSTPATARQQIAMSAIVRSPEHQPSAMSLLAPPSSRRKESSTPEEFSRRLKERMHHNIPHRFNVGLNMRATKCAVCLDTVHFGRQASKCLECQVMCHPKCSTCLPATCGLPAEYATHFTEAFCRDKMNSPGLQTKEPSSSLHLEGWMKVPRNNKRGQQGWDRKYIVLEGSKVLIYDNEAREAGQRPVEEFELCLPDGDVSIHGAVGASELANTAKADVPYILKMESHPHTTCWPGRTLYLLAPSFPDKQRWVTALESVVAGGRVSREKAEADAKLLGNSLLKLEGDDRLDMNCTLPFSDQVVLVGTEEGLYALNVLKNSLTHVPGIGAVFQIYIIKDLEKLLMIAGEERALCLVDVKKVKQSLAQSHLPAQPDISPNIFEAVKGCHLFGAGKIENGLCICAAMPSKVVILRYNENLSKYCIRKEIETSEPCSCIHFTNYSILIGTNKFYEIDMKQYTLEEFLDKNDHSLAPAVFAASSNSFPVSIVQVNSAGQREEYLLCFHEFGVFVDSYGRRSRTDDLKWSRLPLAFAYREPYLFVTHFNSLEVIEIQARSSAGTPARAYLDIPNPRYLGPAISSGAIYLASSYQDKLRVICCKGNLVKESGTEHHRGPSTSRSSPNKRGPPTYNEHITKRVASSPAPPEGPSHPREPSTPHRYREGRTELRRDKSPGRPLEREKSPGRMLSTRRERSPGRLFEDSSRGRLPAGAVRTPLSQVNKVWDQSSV

SMILES: CC(N)c1ccc(-c2ccnc3[nH]ccc23)cc1 (centres undefined)
IC50 [1]: 500 nM

SMILES: Cc1cc2c(-c3ccc(NC(=O)[C@H](N)CC(C)(C)C)cc3C)ccnc2[nH]1
Vd [4]: 0.91 L/kg
GI50 [5]: < 2000 nM
Papp A→B at 1 h [6]: 21.3 ×10⁻⁶ cm/s
GI50 [7]: < 2000 nM
F [8]: 72%
AUC at 24 h [9]: 7.71 µM·h
AUC [10]: 10.2 µM·h
Fu [11]: 0.52%
GI50 [12]: 7000 nM
inhibition at 10 µM [13]: 28.3%
half-life [14]: 4 h
Cmax [15]: 1.02 µM
Fu [16]: 0.26%
inhibition at 10 µM [17]: 6.7%
GI50 [18]: < 2000 nM
AUC [19]: 7.3 µM·h
Cmax [20]: 12.9 µM
inhibition at 10 µM [21]: 56.2%
clearance [22]: 4.4 mL/min/kg
AUC at 24 h [23]: 90.5 µM·h
Cmax [24]: 5.8 µM
half-life [25]: 4.3 h
Cmax [26]: 12.3 µM

SMILES: CC(C)C[C@H](N)C(=O)Nc1ccc(-c2ccnc3[nH]ccc23)cc1
IC50 [1]: 42 nM

SMILES: CC(C)CC(CN)C(=O)Nc1ccc(-c2ccnc3[nH]ccc23)cc1 (centres undefined)
IC50 [1]: 410 nM

SMILES: Cc1cc2c(-c3ccc(NC(=O)[C@H](N)[C@@H](O)C(C)C)cc3C)ccnc2[nH]1
IC50 [1]: 5.5 nM
IC50 [27]: 4400 nM

SMILES: C[C@@H](N)c1ccc(C(=O)Nc2ccnc3[nH]ccc23)cc1 [Y-39983]
IC50 [1]: 150 nM

The next lines start with the values.

IC50 [1]: > 30000 nM
Kd [2]: Not Active
Kd [3]: Not Active
SMILES: Cc1cc2c(-c3ccc(NC(=O)[C@H](N)CC(C)(C)C)cc3C)cncc2[nH]1

IC50 [1]: 250 nM
SMILES: CC(N)C(=O)Nc1ccc(-c2ccnc3[nH]ccc23)cc1 (centres undefined)

IC50 [1]: 16 nM
SMILES: Cc1cc2c(-c3ccc(NC(=O)[C@@H](N)[C@H](O)C(C)C)cc3C)ccnc2[nH]1
